According to US7923442B2, “Glutathione peroxidase mimetics and uses thereof” (UTI Limited Partnership, priority 2005, dated 2011):

Legend:
[1] = Catalytic activity of GPx mimetics: reduction of hydrogen peroxide with benzyl thiol
Experimental: (§1) Catalytic activity of the compounds described herein can be determined via assessing the reduction of tert-butyl hydroxyperoxide and hydrogen peroxide with benzyl thiol for example as described in Example 1, herein. According to this embodiment, catalytic activity was compared by means of reaction half-life (t1/2), where the value reflects the time required to oxidize half of the thiol to its disulfide.
(§2) Diselenide 17, selenide 20 and spirodioxyselenurane 25 were prepared by literature procedures. NMR spectra were run in CDCl3 unless otherwise indicated. Chemical shifts for ^77Se and ^125Te NMR spectra are reported relative to dimethyl selenide and dimethyl telluride, respectively (δ 0.00). The spectra were recorded by using diphenyl diselenide in CDCl3 (δ 463 ppm) or selenium dioxide in D2O (δ 1302.6 ppm) for ^77Se NMR spectra, and diphenyl ditelluride in CDCl3 (δ 420.8 ppm) for ^125Te NMR spectra. Benzyl thiol was distilled prior to use and the concentrations of tert-butyl hydroperoxide and hydrogen peroxide were determined by iodometric analysis.
(§3) Glassware used in the measurement of catalytic activity (Example 9) was washed only with water followed by acetone, and was flame-dried prior to use. Contamination with traces of detergent or alkali produced abnormal kinetic results.
(§4) Catalytic activity of some of the compounds synthesized as described the foregoing Examples are described in the tables below, where the activity measured is in terms of comparability to selenoenzyme glutathione peroxidase. Reactions were performed with BnSH (0.029 M), the catalyst (0.0029 M) and either 56% TBHP (0.038 M), 38% TBHP (0.023 M) or 29% H2O2(0.040 M) in CH2Cl2-MeOH (95:5) at 18° C., except for entries 7, 8, 17 and 18, where the solvent was CH2Cl2-MeOH (4:1).

[2] = Catalytic activity of GPx mimetics: reduction of tert-butyl hydroperoxide with benzyl thiol
Experimental: as §1, §2, §3, §4

[3] = Catalytic activity of GPx mimetics: overall comparison of catalysts in words (both oxidants); conditions: reduction of peroxides with BnSH; for catalytic activity compared to their selenium analogs 14 and 16: fastest reaction rates
Description: as §1, §4
In general, hydrogen peroxide was reduced faster than tert-butyl hydroperoxide in the presence of the selenium-based catalysts.

SMILES | t1/2 (h), time required to oxidize half of the thiol to its disulfide [1] [h] | t1/2 (h), time required to oxidize half of the thiol to its disulfide [2] [h] | catalytic activity compared to the parent cyclic seleninate ester 14 and spirodioxyselenurane 16 [3] | catalytic activity compared to their selenium analogs 14 and 16 [3] | melting point [°C]
O=[Se]1CCCO1 (stereo not drawn) [Compound 14, reference compound] | 18 |  |  |  | 
C1CO[Se]2(C1)CCCO2 [Compound 16, reference compound] | 0.2 |  |  |  | 
O=[Se]1OCc2ccccc21 (stereo not drawn) [Compound 19, Benzo-1,2-oxaselenolane Se-Oxide] | 18 | 162 | inferior catalysts |  | 
O=C1O[Se](=O)c2ccccc21 (stereo not drawn) [Compound 22, Benzo-3-oxo-1,2-Oxaselenolane Se-Oxide] | 73 | 252 | inferior catalysts |  | 
c1ccc2c(c1)CO[Se]21OCc2ccccc21 [Compound 24, Spirodioxyselenurane] | 5.5 | 62 | inferior catalysts |  | 
O=C1O[Se]2(OC(=O)c3ccccc32)c2ccccc21 [Compound 25, Spirodioxyselenurane, reference compound] | 35 | 113 | inferior catalysts |  | 
O=[Te]1CCCO1 [Compound 27, 1,2-Oxatellurolane Te-oxide] |  |  |  | superior catalysts | 
C1CO[Te]2(C1)CCCO2 [Compound 29, Spirodioxytellurane] |  |  |  | superior catalysts | 
COc1ccc2c(c1)CO[Se]2=O (stereo not drawn) [Compound 91, 5-metboxybenzo-1,2-oxaselenolane Se-oxide] | 28 | 81 |  |  | 
O=[Se]1OCc2cc(F)ccc21 (stereo not drawn) [Compound 93, 5-fluorobenzo-1,2-oxaselenolane Se-oxide] | 39 | 238 |  |  | 141 to 142
COc1ccc2c(c1)CO[Se]21OCc2cc(OC)ccc21 [Compound 126, spirodioxyselenurane] | 3.3 | 39 |  |  | 171 to 173
Fc1ccc2c(c1)CO[Se]21OCc2cc(F)ccc21 [Compound 127, spirodioxyselenurane] | 16 | 181 |  |  | 189 to 191
